Laboratory results taken from patent EP4699605A1, “USE OF NOVEL COMPOUND FOR TREATING INTRACTABLE DISEASES” (YJ Cerapeutics Inc., priority 2023, dated 2024).

How the values were obtained:
Type in all cases: in vivo, Sprague-Dawley rats
[1] = test system: traumatic spinal cord injury (SCI) model; assay: Urinary function analysis in SCI model (residual urine volume, UBFS, bladder size and weight)
Protocol: To be used as a central nerve injury animal model, a traumatic spinal cord injury (SCI) model was prepared (FIG. 1A). Specifically, 230 to 250 g of male adult Sprague-Dawley rats were anesthetized by intraperitoneal injection of chloral hydrate (500 mg/kg), and then the back and neck regions were shaved, and the spinal cord under the back and neck regions was exposed without damaging the dura mater, and a laminectomy was performed at T9 to T10 levels. To stabilize the spine, the spinous processes of T8 and T11 were fixed, and the spine was damaged by free-falling a 10 g weight from a height of 25 mm using an NYU impactor onto the back surface of the exposed spinal cord and then the rats were left in a temperature and humidity-controlled chamber overnight while covering the muscles and skin. After surgery, the rats were subcutaneously injected with a supplement solution (5 ml, lactated ringer) and injected with antibiotics (gentamicin, 5 mg/kg, intramuscular injection) once daily for 5 days. The body weight, remaining food, and the weight of water were confirmed and recorded for all animals, and the bladder was emptied twice daily by passive bladder massage until reflex micturition was established. At this time, a Sham group was a group that was subjected to only laminectomy without damage.
In order to confirm the effect of YJ102 (Chemical Formula 1), a compound of the present disclosure, on urinary disturbances caused by spinal cord injury, immediately after preparing the traumatic spinal cord injury (SCI) model (FIG. 1A) prepared in Example 1 above, YJ102 was dissolved in DMSO, methyl pyrrolidinone, and water (1 : 1.5 : 1) and administered intraperitoneally at 5 mg/kg, and then intraperitoneally administered at 24-hour intervals for 7 days from the next day. Thereafter, the effect of improving bladder functions was analyzed through a residual urine volume test and a urinary bladder function score (UBFS). At this time, a Vehicle group was administered with the same amount of a solution of DMSO, methyl pyrrolidinone, and water. Specifically, in order to determine the amount of urine remaining in the bladder after spinal cord injury, bladder extrusion was performed twice a day by applying pressure to the central bottom portion of the lower abdomen using the index and middle fingers to empty the bladder, and the expelled urine was collected in a catheter and its volume was recorded. […]

proNGF = assay: NGF/proNGF expression in bladder after SCI (RT-PCR, Western blot); details: bladder tissue after spinal cord injury
Protocol: In order to determine whether YJ102 affected the production of proNGF as a ligand of p75, the expression of proNGF in the bladder was confirmed by RT-PCR, Western blot analysis, and immunofluorescence staining. In addition, for further verification, a macrophage cell line Raw 264.7 (Korea Cell Line Bank, Seoul, Korea) was stimulated with 1 µg/ml of LPS, and the effect of YJ102 on the production of proNGF was investigated. At this time, YJ102 was dissolved in DMSO and treated 30 minutes before LPS treatment.

mTOR pathway = assay: Signaling pathway analysis in SNI model (Western blot): mTOR; details: 4 weeks after nerve injury
Protocol: To determine through which signaling pathway YJ102 inhibited a neuroinflammatory response, there was analyzed increased expression and activation of histone demethylase JMJD3 and expression changes of factors associated with JAK/STAT3 pathway, mTOR pathway, and TRPM7-mediated pathway, which were known as important regulatory mechanisms and epigenetic regulators mediating the neuroinflammatory response, in the tissues of the SNI animal model 4 weeks after nerve injury.

microglia = assay: Microglial activation in spinal cord of SNI model (OX-42 staining, p-p38MAPK Western blot)
Protocol: To be used as a peripheral nerve injury animal model, a sciatic nerve injury (SNI) model was prepared (FIG. 1C). Specifically, 200 to 220 g of male adult Sprague-Dawley rats were anesthetized by intraperitoneal injection of chloral hydrate (500 mg/kg), and then three terminal branches (tibial, common peroneal, and sural nerves) of the right sciatic nerve were approached, and the tibia nerve and the peroneal nerve were tightly ligated with 4-0 silk, and neurectomy was performed at a distal 3 mm position of the ligation site. At this time, a Sham group was a group that exposed only the sciatic nerve without damage.
To analyze the activation of microglia in the spinal cord, which were known to play an important role in the induction/persistence of neuropathic pain, 4 weeks after nerve injury in the SNI animal model, the spinal cord of 4 and 5 lumbar vertebrae was stained with OX-42 to confirm changes in cell shape and intensity. […] The supernatant was transferred to a new microcentrifuge, the protein concentration was measured using a BCA kit, and samples for Western blot were prepared by adding a 1X sample buffer and boiling for 5 minutes. […]

inflammatory factors = assay: Inflammatory cytokine and chemokine expression in bladder after SCI (RT-PCR, Western blot); details: bladder tissue after spinal cord injury
From the text: To confirm the effect of YJ102 on the expression of inflammatory factors in the bladder after spinal cord injury, the expression of inflammatory cytokines and chemokines, COX-2, iNOS, IL-6, IL-1β, MIP-1α, MIP-1β, MIP-2α, and Gro-α in bladder tissue was confirmed by RT-PCR analysis and Western blot analysis using the primers in Table 2 above. In addition, even in the Raw 264.7 cell line, the expression was verified by RT-PCR analysis.

## CCc1ccc(N(C(=O)COC)c2nc3cc(Cl)ccc3o2)cc1 [YJ102]
[1]; 5 mg/kg intraperitoneally
  bladder size: significantly reduced
  bladder weight: significantly reduced
[1]; 5 mg/kg intraperitoneally at 24-hour intervals, vs Veh group, from the first day of administration
  residual urine volume: significantly reduced
[1]; 5 mg/kg intraperitoneally, vs Vehicle group on day 3 and day 7 after spinal cord injury
  bladder function restoration using the UBFS: significantly increased
proNGF; RT-PCR
  NGF mRNA expression: significantly inhibited
proNGF; Western blot
  proNGF production: significantly inhibited
mTOR pathway
  activity of S6: inhibiting
  activity of p70S6kinase: inhibiting
microglia; 4 weeks after nerve injury, L4-L5 spinal cord, vs Vehicle
  microglia activation changes (OX-42 intensity, activated morphology): significantly reduced
microglia; spinal cord, Western blot
  amount of p-p38MAPK: significantly reduced
Inflammatory factors
  expression of COX-2, iNOS, IL-6, IL-1β, MIP-1α, MIP-1β, MIP-2α, and Gro-α: significantly reduced
